This is an account of results in US20220153766A1, “CONDENSED TRICYCLIC COMPOUND USED AS KINASE INHIBITOR” (Hangzhou Innogate Pharma Co., Ltd., priority 2019, published 2022).

Assay [1] deals with Ba/F3_EGFR del19/T790M/C797S cells (Homo sapiens, UniProt P00533, T790M/C797S, cells depend on it, form not given). Description: Ba/F3_EGFR (del19-T790M-C797S) cell proliferation inhibition, CTG, method 1. Conditions: 700 cells/well, 72 h, read-out: Ba/F3_EGFR (del19-T790M-C797S) cell proliferation inhibition (IC50 value) Method 1. The class given is cell-based. How it is done: The cells were cultured in a 37° C., 5% CO2 incubator.
Sequence of Ba/F3_EGFR del19/T790M/C797S cells (P00533 with tags, fused parts or gaps DEL746-750/T790M/C797S, form open): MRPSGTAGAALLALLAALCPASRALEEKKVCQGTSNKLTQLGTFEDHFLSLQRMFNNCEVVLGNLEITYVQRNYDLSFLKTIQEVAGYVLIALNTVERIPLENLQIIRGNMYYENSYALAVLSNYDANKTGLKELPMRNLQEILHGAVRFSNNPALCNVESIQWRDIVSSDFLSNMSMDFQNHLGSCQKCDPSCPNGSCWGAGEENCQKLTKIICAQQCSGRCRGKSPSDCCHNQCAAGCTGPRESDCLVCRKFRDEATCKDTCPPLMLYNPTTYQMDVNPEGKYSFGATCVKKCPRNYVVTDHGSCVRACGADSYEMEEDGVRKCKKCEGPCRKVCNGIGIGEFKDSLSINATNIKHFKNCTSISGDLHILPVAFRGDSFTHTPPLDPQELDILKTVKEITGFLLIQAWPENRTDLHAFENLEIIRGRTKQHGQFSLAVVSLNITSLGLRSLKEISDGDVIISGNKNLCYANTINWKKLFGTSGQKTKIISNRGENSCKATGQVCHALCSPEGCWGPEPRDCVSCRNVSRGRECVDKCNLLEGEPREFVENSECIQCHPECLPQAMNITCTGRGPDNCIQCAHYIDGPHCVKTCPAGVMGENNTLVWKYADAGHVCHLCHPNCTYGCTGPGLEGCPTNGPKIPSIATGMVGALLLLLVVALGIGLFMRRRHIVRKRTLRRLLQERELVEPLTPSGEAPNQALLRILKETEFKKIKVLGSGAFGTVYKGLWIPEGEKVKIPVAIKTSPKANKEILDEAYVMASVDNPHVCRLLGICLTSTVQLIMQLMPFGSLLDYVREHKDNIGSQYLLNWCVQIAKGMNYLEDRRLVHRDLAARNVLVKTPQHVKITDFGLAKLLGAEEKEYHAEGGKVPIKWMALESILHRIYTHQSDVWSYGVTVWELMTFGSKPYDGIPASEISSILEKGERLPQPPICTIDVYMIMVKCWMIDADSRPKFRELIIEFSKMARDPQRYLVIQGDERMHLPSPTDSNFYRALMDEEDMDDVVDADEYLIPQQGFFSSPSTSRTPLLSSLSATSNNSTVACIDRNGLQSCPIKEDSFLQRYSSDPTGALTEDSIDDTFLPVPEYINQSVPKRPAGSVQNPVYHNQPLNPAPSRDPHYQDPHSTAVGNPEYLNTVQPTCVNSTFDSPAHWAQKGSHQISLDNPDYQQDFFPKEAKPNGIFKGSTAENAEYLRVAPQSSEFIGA
Cell plating and compound treatment: 1) Cells are routinely cultured until the cell saturation is 80%-90%, and when the number reaches the requirement, the cells are collected. 2) Resuspend in the corresponding fresh medium, take a small amount of cells to count, and prepare a cell suspension with a suitable density. 3) Inoculate the cell suspension into a 384-well plate at 700 cells/well, 30 μL per well. 4) Use Echo to add the compound to the corresponding cell well. The maximum starting concentration of the compound is 1-10 μM, 3 folds dilution, 8 concentrations.
CTG method detection: 1) Add 30 μL of CTG reagent (CelltiterGlo kit) to each well, and let it stand for 30 minutes at 37° C. and 5% CO2 in the dark. 2) Use Envision instrument to read the chemiluminescence signal value.
Data analysis: IC50 results are analyzed by GraphPad Prism 6 software. […] X: log value of compound concentration; Y: inhibition rate (% inhibition); inhibition rate (% inhibition)=(blank control well reading−compound well reading)/(blank control well reading−positive control reading)×100.

In assay [2] the target is EGFR (C797S) (Homo sapiens, UniProt P00533, C797S). Nature of the assay: EGFR (C797S) kinase activity inhibition, Lantha screen Assay. The class given is biochemical. The following applies: kinase 10 nM, ATP 0.1 μM. How it is done: 1. EGFR (C797S) Kinase Activity Inhibition Experiment: The Lantha screen Assay method was used to test the inhibitory activity of the compounds at a kinase EGFR (C797S) concentration of 10 nM and an ATP concentration of 0.1 μM. The control samples were Staurosporine. Experimental Steps: […] 2) Control sample Staurosporine and test samples preparation: Staurosporine and the compounds of the embodiment of the present invention are formulated into a gradient concentration solution in 100% DMSO, and diluted to 10% DMSO with the above-mentioned buffer, and added to a 384-well plate. For example, if the initial concentration of the compound is 10 μM, 100% DMSO is used to prepare a 1000 μM solution, and 10 concentration gradients are diluted, and 100 nL solution is transferred to a 384-well plate with Echo*LIQUID HANDLE RS (LABCYTE, USA). […] Transfer 5 μL to the 384-well plate and incubate with the compound for 10-15 minutes. […] Transfer 5 μL to the 384-well plate to initiate the reaction, and incubate at room temperature for 30 minutes. [table] 5) Use TR-Fret dilution buffer to prepare 2-fold detection solution. The final concentration of Antibody is 2 nM and the final concentration of EDTA is 10 mM. Transfer 10 μL of detection solution to the reaction wells of the 384-well plate, shake and mix, and incubate at room temperature for 60 min. 6) Read the ratio of excitation at 340 nm and emission at 520 nm to 495 nm on Envision, and calculate the inhibition rate. 7) Fit IC50 with XL-fit software.
Sequence of EGFR (C797S) (P00533 25-1210 C797S): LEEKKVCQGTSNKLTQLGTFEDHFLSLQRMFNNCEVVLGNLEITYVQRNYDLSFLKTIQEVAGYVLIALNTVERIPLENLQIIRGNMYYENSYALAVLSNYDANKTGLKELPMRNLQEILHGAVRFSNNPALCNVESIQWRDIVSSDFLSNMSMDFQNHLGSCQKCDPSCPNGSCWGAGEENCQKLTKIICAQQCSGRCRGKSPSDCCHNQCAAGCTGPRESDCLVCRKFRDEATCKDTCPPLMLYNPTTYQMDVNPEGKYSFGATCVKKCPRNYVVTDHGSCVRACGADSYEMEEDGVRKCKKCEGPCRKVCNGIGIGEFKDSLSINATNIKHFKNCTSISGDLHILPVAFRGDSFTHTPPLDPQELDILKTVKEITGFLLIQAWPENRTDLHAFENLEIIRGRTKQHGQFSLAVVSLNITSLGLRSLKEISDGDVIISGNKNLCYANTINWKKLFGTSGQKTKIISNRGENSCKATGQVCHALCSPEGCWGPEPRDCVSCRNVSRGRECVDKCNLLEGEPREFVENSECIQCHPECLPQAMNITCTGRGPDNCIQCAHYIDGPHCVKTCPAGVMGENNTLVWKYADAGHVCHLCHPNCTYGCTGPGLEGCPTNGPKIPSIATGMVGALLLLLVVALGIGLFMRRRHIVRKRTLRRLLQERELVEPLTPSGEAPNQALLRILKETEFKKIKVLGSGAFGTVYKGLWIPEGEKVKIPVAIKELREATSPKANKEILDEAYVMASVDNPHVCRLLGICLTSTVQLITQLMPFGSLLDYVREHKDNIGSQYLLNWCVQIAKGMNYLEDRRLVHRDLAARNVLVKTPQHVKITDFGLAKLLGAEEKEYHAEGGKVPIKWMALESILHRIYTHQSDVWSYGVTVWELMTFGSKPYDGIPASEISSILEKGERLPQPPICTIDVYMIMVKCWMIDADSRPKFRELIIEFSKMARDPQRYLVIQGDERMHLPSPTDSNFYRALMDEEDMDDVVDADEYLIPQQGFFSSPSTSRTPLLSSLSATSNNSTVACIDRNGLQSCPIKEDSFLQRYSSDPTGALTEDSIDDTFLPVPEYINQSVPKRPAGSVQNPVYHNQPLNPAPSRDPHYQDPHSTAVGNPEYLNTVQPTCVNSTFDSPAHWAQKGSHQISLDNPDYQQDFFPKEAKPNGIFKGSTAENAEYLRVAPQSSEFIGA

Assay [3] has as its target ALK (Homo sapiens, UniProt Q9UM73). Nature of the assay: ALK kinase activity inhibition, Caliper mobility shift assay, method 1. It counts as biochemical. How it is done:
2. ALK Kinase Activity Inhibition Experiment: Method 1: In vitro enzymatic activity of ALK was measured using Caliper mobility shift assay. […] Add 10 μL of 2.5-fold enzyme solution and incubate at room temperature for 10 minutes, then add 10 μL of 2.5-fold substrates (Peptide FAM-P22 and ATP) solution. […] Read conversion rate data on Caliper EZ Reader II (Caliper Life Sciences). Convert the conversion rate into inhibition rate (% inhibition=(max−conversion rate)/(max−min)*100). Max refers to the conversion rate of the DMSO control, and min refers to the conversion rate without enzyme activity. With the compound concentration and inhibition rate on the abscissa and ordinate, draw the curve, use XLFit excel add-in version 5.4.0.8 software to fit the curve and calculate the IC50.

In assay [4] the target is MAP4K1 (HPK1) (Homo sapiens, UniProt Q92918). Nature of the assay: MAP4K1 (HPK1) kinase activity inhibition, Caliper mobility shift assay. The class given is biochemical. Conditions: kinase 1.25 nM, ATP 10.1 μM. The procedure: 4. MAP4K1 (HPK1) Kinase Activity Inhibition Experiment: Caliper mobility shift assay was used to detect the inhibitory effect of the compound on MAP4K1 (HPK1) kinase activity. The test concentration of the compound starts at 500 nM, and is diluted 5 folds into 5 concentration points. Use a dispenser Echo 550 to transfer 250 nL 100-fold final concentration of the compound to the target plate 3573, add 10 μL of MAP4K1 (HPK1) kinase solution with a final concentration of 1.25 nM, and incubate for 10 minutes at room temperature (the negative control well contains 10 μL kinase buffer and 250 nL 100% DMSO; the positive control well contains 10 μL kinase solution and 250 nL 100% DMSO). On the kinase MAP4K1 (HPK1), add 15 μL of ATP with a final concentration of 10.1 μM and 3 μM substrate peptide No. 25 mixed solution to react for 120 minutes. Add 30 μL of stop solution containing EDTA to stop the kinase reaction. Use Caliper EZ Reader to read the conversion rate. Inhibition rate %=(Average positive control conversion rate %−Sample conversion rate %/(Average positive control conversion rate %−Average negative control conversion rate %). Among them: negative control wells represent the conversion rate readings without enzyme activity; positive control wells represent the conversion rate readings of wells without compound inhibition. Take the log value of the concentration as the X-axis, and the percentage inhibition rate on the Y-axis. Log (inhibitor) vs. response—Variable slope of analysis software GraphPad Prism 5 was used to fit the curve to obtain the IC50 value of each compound on the enzyme activity. Calculation formula: Y=Bottom+(Top−Bottom)/(1+10 ^((Log IC50−X)*HillSlope)).
Sequence of MAP4K1 (HPK1) (Q92918 whole entry): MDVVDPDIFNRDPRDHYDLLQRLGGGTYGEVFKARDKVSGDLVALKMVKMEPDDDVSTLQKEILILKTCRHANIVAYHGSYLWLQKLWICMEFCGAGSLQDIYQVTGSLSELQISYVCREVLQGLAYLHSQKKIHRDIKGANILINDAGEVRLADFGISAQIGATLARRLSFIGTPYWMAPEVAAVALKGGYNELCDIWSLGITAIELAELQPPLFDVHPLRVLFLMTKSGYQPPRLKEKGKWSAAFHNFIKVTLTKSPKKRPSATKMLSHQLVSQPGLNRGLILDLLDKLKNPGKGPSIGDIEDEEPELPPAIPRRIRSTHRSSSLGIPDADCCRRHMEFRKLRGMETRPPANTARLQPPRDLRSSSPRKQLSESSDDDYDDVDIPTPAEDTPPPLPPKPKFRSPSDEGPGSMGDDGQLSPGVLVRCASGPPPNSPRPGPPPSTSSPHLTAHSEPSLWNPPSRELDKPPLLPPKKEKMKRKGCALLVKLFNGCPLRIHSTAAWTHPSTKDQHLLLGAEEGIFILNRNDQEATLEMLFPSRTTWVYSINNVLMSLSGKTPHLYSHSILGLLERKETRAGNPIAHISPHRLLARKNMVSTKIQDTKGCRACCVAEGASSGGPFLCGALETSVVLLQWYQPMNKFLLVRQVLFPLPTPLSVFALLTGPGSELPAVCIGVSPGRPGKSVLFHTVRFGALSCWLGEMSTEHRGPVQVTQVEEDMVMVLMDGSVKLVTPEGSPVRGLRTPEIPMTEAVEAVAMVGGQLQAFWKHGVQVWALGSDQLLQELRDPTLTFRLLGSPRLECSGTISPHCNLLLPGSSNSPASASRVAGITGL

Sequence of ALK (Q9UM73 19-1620): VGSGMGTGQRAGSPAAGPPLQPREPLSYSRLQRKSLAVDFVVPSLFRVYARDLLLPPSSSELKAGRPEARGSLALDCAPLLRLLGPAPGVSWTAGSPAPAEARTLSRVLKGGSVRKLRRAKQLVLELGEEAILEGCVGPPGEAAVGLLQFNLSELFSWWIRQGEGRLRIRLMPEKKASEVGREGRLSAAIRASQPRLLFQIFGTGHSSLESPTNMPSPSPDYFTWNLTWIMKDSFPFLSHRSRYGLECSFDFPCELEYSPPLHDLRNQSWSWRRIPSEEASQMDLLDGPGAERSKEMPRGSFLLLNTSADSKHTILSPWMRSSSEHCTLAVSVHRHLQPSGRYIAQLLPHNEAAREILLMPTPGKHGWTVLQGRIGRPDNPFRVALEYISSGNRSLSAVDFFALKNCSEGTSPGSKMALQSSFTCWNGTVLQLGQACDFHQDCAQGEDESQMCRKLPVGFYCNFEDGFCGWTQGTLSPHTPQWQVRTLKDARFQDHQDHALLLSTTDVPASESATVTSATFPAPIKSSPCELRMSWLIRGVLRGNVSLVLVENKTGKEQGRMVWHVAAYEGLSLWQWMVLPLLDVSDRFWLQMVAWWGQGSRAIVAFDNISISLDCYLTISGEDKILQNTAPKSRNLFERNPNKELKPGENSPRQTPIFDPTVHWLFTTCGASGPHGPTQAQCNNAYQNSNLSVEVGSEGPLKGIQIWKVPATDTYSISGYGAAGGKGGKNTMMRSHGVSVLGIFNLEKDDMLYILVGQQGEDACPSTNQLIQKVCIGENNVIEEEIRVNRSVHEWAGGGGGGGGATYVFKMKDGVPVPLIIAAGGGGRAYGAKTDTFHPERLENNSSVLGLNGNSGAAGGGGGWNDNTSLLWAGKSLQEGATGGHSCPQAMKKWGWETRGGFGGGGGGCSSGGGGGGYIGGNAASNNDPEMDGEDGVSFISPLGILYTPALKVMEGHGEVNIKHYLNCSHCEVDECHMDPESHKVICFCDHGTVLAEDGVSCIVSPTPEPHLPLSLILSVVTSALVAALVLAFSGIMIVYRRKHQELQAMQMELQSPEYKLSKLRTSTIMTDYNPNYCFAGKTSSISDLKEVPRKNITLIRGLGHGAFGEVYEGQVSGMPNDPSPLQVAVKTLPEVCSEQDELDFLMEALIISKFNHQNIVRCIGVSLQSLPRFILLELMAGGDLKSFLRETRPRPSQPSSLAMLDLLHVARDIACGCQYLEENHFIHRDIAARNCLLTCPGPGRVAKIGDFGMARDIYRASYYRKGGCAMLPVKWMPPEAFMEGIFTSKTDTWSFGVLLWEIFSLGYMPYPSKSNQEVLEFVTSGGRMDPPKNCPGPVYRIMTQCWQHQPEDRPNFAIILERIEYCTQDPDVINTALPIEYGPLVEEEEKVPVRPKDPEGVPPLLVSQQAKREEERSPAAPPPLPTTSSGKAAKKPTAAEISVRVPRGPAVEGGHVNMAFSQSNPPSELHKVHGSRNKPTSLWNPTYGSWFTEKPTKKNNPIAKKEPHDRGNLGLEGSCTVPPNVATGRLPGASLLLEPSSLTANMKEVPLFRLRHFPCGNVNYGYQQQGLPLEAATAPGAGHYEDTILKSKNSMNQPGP

On to `C#CC(=O)N1CCN2c3ccc(Nc4ncc(Cl)c(Nc5ccccc5P(C)(C)=O)n4)cc3OC[C@H]2C1` [Compound 17R], for which the GI50 in assay [1] was less than 20 nM.
Same read-out and setting: under `Cc1cc(Nc2ncc(Cl)c(Nc3ccccc3P(C)(C)=O)n2)cc2c1OC[C@@H]1CNCCN21` [Compound 24S] stands 20 to 100 nM.
In the case of `C=CC(=O)N1CCN2c3ccc(Nc4ncc(Cl)c(Nc5ccccc5P(C)(C)=O)n4)cc3OC[C@@H]2C1` [Compound 6S], the IC50 in assay [2] and in assay [3] was 1 to 50 nM each time. Further, the GI50 in assay [1] fell in the range of 20 to 100 nM.
For `CN1CCN2c3ccc(Nc4ncc(Cl)c(Nc5ccccc5P(C)(C)=O)n4)cc3OCC2C1` (racemic) [Compound 1], the IC50 in assay [2] and in assay [3] was 1 to 50 nM throughout.
For the compound `CCN1CCN2c3ccc(Nc4ncc(Cl)c(Nc5ccccc5P(C)(C)=O)n4)cc3OC[C@H]2C1` [Compound 8R], the half-inhibitory concentration (IC50) in assay [2] and in assay [3] was 1 to 50 nM throughout. In addition, in assay [1], the GI50 is 20 to 100 nM.
In the case of `CP(C)(=O)c1ccccc1Nc1nc(Nc2ccc3c(c2)OC[C@H]2CN(S(=O)(=O)C4CC4)CCN32)ncc1Cl` [Compound 2R], the IC50 (as a rule, the concentration that gives 50% inhibition) was in the range of 50 to 250 nM in assay [2] and 1 to 50 nM in assay [3]. Moreover, the GI50 in assay [1] lay in the range of 20 to 100 nM.
On to `Cc1cc(Nc2ncc(Cl)c(Nc3ccccc3P(C)(C)=O)n2)cc2c1N1CCNC[C@@H]1CO2` [Compound 23R], for which the GI50 in assay [1] fell in the range of 20 to 100 nM.
For `CN1CCN2c3ccc(Nc4ncc(Cl)c(Nc5ccccc5P(C)(C)=O)n4)cc3OC[C@@H]2C1` [Compound 1S], the IC50 in assay [2] and in assay [3] was 1 to 50 nM in each case. Moreover, the GI50 in assay [1] is less than 20 nM.
In the case of `CP(C)(=O)c1ccccc1Nc1nc(Nc2ccc3c(c2)OC[C@H]2CN(CC(F)(F)F)CCN32)ncc1Cl` [Compound 13R], the half-maximal inhibitory concentration (IC50) in assay [2] and in assay [3] was 50 to 250 nM throughout. Besides, the GI50 in assay [1] lay within 20 to 100 nM.
With `CP(C)(=O)c1ccccc1Nc1nc(Nc2ccc3c(c2)OC[C@H]2CN(CCO)CCN32)ncc1Cl` [Compound 7R], the IC50 is 50 to 250 nM in assay [2] and 1 to 50 nM in assay [3].
Take `CP(C)(=O)c1ccccc1Nc1nc(Nc2ccc3c(c2)OC[C@@H]2CNCCN32)ncc1Cl` [Compound 4S]: the IC50 in assay [2] and in assay [3] was 1 to 50 nM each time. Further, the GI50 in assay [1] lay within 20 to 100 nM.
For `CP(C)(=O)c1ccccc1Nc1nc(Nc2ccc3c(c2)OC[C@@H]2COCCN32)ncc1Cl` [Compound 12S], the IC50 in assay [2] was 50 to 250 nM; in assay [3] it was 1 to 50 nM.
For the compound `COCCN1CCN2c3ccc(Nc4ncc(Cl)c(Nc5ccccc5P(C)(C)=O)n4)cc3OC[C@H]2C1` [Compound 10R], the IC50 in assay [2] and in assay [3] was 1 to 50 nM in each case. Further, the GI50 in assay [1] is 20 to 100 nM.
Turning to `C=CS(=O)(=O)N1CCN2c3ccc(Nc4ncc(Cl)c(Nc5ccccc5P(C)(C)=O)n4)cc3OC[C@H]2C1` [Compound 19R], the half-inhibitory concentration (IC50) in assay [4] is no more than 1 nM. Also, the GI50 in assay [1] is less than 20 nM.
Turning to `COCCCC(=O)N1CCN2c3ccc(Nc4ncc(Cl)c(Nc5ccccc5P(C)(C)=O)n4)cc3OC[C@H]2C1` [Compound 28R], the GI50 in assay [1] is 20 to 100 nM.
Take `CP(C)(=O)c1ccccc1Nc1nc(Nc2ccc3c(c2)OC[C@H]2CN(CC#N)CCN32)ncc1Cl` [Compound 9R]: the results for the 50% inhibitory concentration (IC50) in assay [2] and in assay [3] were 250 to 1000 nM and 1 to 50 nM, respectively. The GI50 in assay [1] is 20 to 100 nM.
In the case of `CN1CCC(N2CCN3c4ccc(Nc5ncc(Cl)c(Nc6ccccc6P(C)(C)=O)n5)cc4OC[C@H]3C2)CC1` [Compound 11R], the concentration for half-maximal inhibition (IC50) in assay [2] and in assay [3] was 1 to 50 nM in each case. Also, the GI50 in assay [1] was less than 20 nM.
As to `CP(C)(=O)c1ccccc1Nc1nc(Nc2ccc3c(c2)OC[C@H]2CN(C4CCOCC4)CCN32)ncc1Cl` [Compound 3R], the IC50 in assay [2] and in assay [3] was 1 to 50 nM throughout. Also, the GI50 in assay [1] was 20 to 100 nM.
With `COC/C=C/C(=O)N1CCN2c3ccc(Nc4ncc(Cl)c(Nc5ccccc5P(C)(C)=O)n4)cc3OC[C@H]2C1` [Compound 20R], the GI50 in assay [1] was in the range of 20 to 100 nM.
As to `CP(C)(=O)c1ccccc1Nc1nc(Nc2ccc3c(c2)OC[C@H]2CNCCN32)ncc1Cl` [Compound 4R], the IC50 in assay [2] and in assay [3] was 1 to 50 nM each time. The GI50 in assay [1] was in the range of 20 to 100 nM.
In the case of `C=CC(=O)N1CCN2c3ccc(Nc4ncc(Cl)c(Nc5ccccc5P(C)(C)=O)n4)cc3OC[C@H]2C1` [Compound 6R], the IC50 in assay [2] was in the range of 50 to 250 nM; in assay [3], 1 to 50 nM. For the same compound, the GI50 in assay [1] lay within 20 to 100 nM.
Taken in the same sequence, the figures for `CC(=O)N1CCN2c3ccc(Nc4ncc(Cl)c(Nc5ccccc5P(C)(C)=O)n4)cc3OC[C@H]2C1` [Compound 5R] were 50 to 250 nM, 1 to 50 nM and 100 to 200 nM.
